Experimental data taken from US20230218604A1, “PPARy AGONIST FOR TREATMENT OF PROGRESSIVE [sequence] PALSY” (Coherus Biosciences, Inc., priority 2022, published 2023).
“And” between values parts separate entries of the source, which are not always exact repeats. Equal entries are not always repeated. “Also recorded” adds a separate entry of the source.

What was measured:
adiponectin [1] = assay: 24-week randomized, double-blind, placebo-controlled study in type 2 diabetes: serum adiponectin levels; type: in vivo, human; details: for Mean Adiponectin, Week 24 / Mean Change in adiponectin from baseline (Week 0) to Week 24 / Mean Adiponectin, Week 0: (SD); for Mean Change in adiponectin from baseline (Week 0) to Week 24: LOCF; for Mean Adiponectin, Week 0: baseline, type 2 diabetes subjects
Protocol: A randomized, double-blind, placebo-controlled, 24-week study was conducted in which adiponectin levels were measured. […] 367 subjects with type 2 diabetes (TD2)—a disease in which patient adiponectin levels are reduced—were randomly assigned to receive either 0.5, 1, 2 or 3 milligrams (“mg”) of INT131 besylate, 45 mg of pioglitazone or placebo daily for 24 weeks. To measure adiponectin levels blood was drawn at Weeks 0, 2, 6, 12 and 24. At baseline (Week 0) mean adiponectin levels were 1.94 micrograms per milliliter (“µg/mL”). The mean adiponectin levels at baseline and Week 24, and the mean change in adiponectin levels from baseline (Week 0) to Week 24 are disclosed in Table 1, below. The standard deviation for samples tested in each group is listed in (parenthesis). Mean baseline adiponectin values were similar for the treatment groups.

[2] = RRMS study: serial cortical and whole brain volumetric MRI analysis; type: in vivo, human; details: 3 mg daily, 6 months
Protocol: (§1) 227 treatment-naive adult subjects (mean age 31 [range 18-50]; 65% female) were randomized into one of three arms: oral CHS-131 at 3 mg (n=76); oral CHS-131 at 1 mg (n=76); placebo (n=75), at 21 sites in Russia. 97% completed Part 1. Inclusion criteria: Relapsing Remitting Multiple Sclerosis (RRMS) for ≤3 years, ≥1 gadolinium-positive lesion within 1-year of enrollment, and an EDSS ≤ 6 at screening. The patients underwent monthly MRI examinations with contrast to identify new inflammatory lesions. All MRIs were read blinded at the Buffalo Neuroimaging Center (Buffalo, NY). In addition to CE lesions the images were scored for cumulative new/enlarged T2 lesions, and serial cortical and whole brain volumetric analysis.

HbA1c [3] = assay: 24-week randomized, double-blind, placebo-controlled study in type 2 diabetes: HbA1c levels; type: in vivo, human; details: 24 weeks
adiponectin [4] = assay: 14-day study of serum adiponectin levels in healthy subjects; type: in vivo, human
Protocol: A study was conducted to determine the effect of INT131 on serum adiponectin levels. Thirty healthy subjects were randomly selected to receive either placebo, 0.1 mg INT131, 1 mg INT131 or 4 mg INT131 daily for 14 days. To measure adiponectin levels blood was drawn at Days 1, 4, 8 and 14.

HbA1c [5] = details: DePaoli et al. Diabetes Care 2014; cited from earlier work
[6] = in vivo; cited from earlier work
[7] = subjects taking INT131 vs those taking pioglitazone; DePaoli et al. 2014; cited from earlier work
[8] = RRMS study: monthly contrast MRI, cumulative CE lesions and new/enlarged T2 lesions; type: in vivo, human; details: for Reduction of CE lesion burden vs. placebo: 6 months; for Cumulative CE lesions over 6 months: complete case analysis
Protocol: as §1

SMILES: CCc1ccc(CCOc2ccc(CC3SC(=O)NC3=O)cc2)nc1 (centres unmarked) [pioglitazone, reference compound]
- Mean Adiponectin, Week 24 (adiponectin [1]; 45 mg pioglitazone daily for 24 weeks): 5.28 (3.222) µg/mL
- Mean Change in adiponectin from baseline (Week 0) to Week 24 (adiponectin [1]; 45 mg pioglitazone daily): 2.96 µg/mL
- Mean Change in adiponectin from baseline (Week 0) to Week 24 (adiponectin [1]; 45 mg pioglitazone daily, listed as Pioglitazone): 2.96 (2.618) µg/mL
- Mean Adiponectin, Week 0 (adiponectin [1]; 45 mg pioglitazone group): 2.32 (2.185) µg/mL

SMILES: O=S(=O)(Nc1cc(Cl)c(Oc2cnc3ccccc3c2)c(Cl)c1)c1ccc(Cl)cc1Cl [INT131]
- Less cortical volume loss compared to placebo [2]: 34.2%
- Less whole brain volume loss compared to placebo [2]: 50%
- Reduction of HbA1c levels as compared to placebo (HbA1c [3]; 1, 2 and 3 mg doses of INT131 daily): statistically significant reduction
- Reduction of HbA1c levels compared with 45 mg of pioglitazone (HbA1c [3]; 2 and 3 mg doses of INT131 daily): at least as well as 45 mg of pioglitazone
- Change in serum adiponectin levels, Day 1 to Day 14 and over placebo (adiponectin [4]; 0.1 mg INT131 daily for 14 days): no significant change
- Change in serum adiponectin levels over placebo and from Day 1 to Day 14 (adiponectin [4]; 1 mg or 4 mg INT131 daily for 14 days): significant change
- Efficacy in reducing HbA1c levels versus 45 mg of pioglitazone (HbA1c [5]): equally efficacious
- Mean Adiponectin, Week 24 (adiponectin [1]; 0.5 mg INT131 daily for 24 weeks): 2.28 (1.540) µg/mL
- Mean Change in adiponectin from baseline (Week 0) to Week 24 (adiponectin [1]; 0.5 mg INT131 daily): 0.56 µg/mL and 0.56 (0.906) µg/mL
- Mean Adiponectin, Week 0 (adiponectin [1]; 0.5 mg INT131 group): 1.73 (1.190) µg/mL
- Adiponectin levels, treatment comparison with pioglitazone 45 mg (adiponectin [1]; 0.5 mg, 1 mg and 3 mg doses of INT131, p≤0.0408): statistically significant
- Mean Adiponectin, Week 24 (adiponectin [1]; 1 mg INT131 daily for 24 weeks): 3.15 (2.533) µg/mL
- Mean Change in adiponectin from baseline (Week 0) to Week 24 (adiponectin [1]; 1 mg INT131 daily): 1.28 µg/mL and 1.28 (1.882) µg/mL
- Mean Adiponectin, Week 0 (adiponectin [1]; 1 mg INT131 group): 1.87 (1.217) µg/mL
- Adiponectin levels, treatment comparison with placebo (adiponectin [1]; 1 mg, 2 mg and 3 mg doses of INT131, p≤0.0109): statistically significant increase
- Mean Adiponectin, Week 24 (adiponectin [1]; 2 mg INT131 daily for 24 weeks): 5.14 (3.650) µg/mL
- Mean Change in adiponectin from baseline (Week 0) to Week 24 (adiponectin [1]; 2 mg INT131 daily): 3.27 µg/mL and 3.27 (3.002) µg/mL
- Mean Adiponectin, Week 0 (adiponectin [1]; 2 mg INT131 group): 1.87 (1.098) µg/mL
- Mean Adiponectin, Week 24 (adiponectin [1]; 3 mg INT131 daily for 24 weeks): 5.83 (4.826) µg/mL
- Mean Change in adiponectin from baseline (Week 0) to Week 24 (adiponectin [1]; 3 mg INT131 daily): 3.83 µg/mL and 3.83 (4.313) µg/mL
- Mean Adiponectin, Week 0 (adiponectin [1]; 3 mg INT131 group): 2.00 (1.215) µg/mL
- Crossing of the blood brain barrier [6]: more readily than other PPARγ agonists; also recorded: readily crosses the blood brain barrier
- Side effects versus pioglitazone [7]: less edema, weight gain, and hemodilution
- Cumulative CE lesions over 6 months, LSMean ([8]; 1 mg oral): 5.15
- Reduction of CE lesion burden vs. placebo ([8]; 1 mg oral, p=ns): 21%
- Cumulative CE lesions over 6 months ([8]; 1 mg oral): 7.6
- Reduction of new/enlarged T2 lesions compared to placebo ([8]; 1 mg, p=ns): 14%
- Cumulative CE lesions over 6 months, LSMean ([8]; 3 mg daily oral): 3.10
- Reduction of CE lesion burden vs. placebo ([8]; 3 mg daily oral, p=0.003): 52%
- Cumulative CE lesions over 6 months ([8]; 3 mg daily oral): 4.2 lesions
- Reduction of new/enlarged T2 lesions compared to placebo ([8]; 3 mg, p=0.0767): 30%
